# Source: patent publication US20120225909A1, “INDAZOLE ANALOG” (priority 2009, published 2012)
# pEC50: −log10 of the molar value.
# How the values were obtained:
# [1] = target: T1, human α1A-adrenergic receptor (Homo sapiens, UniProt P35348); experiment: Test Case 4-A: human α1A-adrenergic receptor agonist activity (HEK293, Ca flux, Fura-2); format: cell-based; parameters: expressed in transfected cells; host or cells: HEK293 cells, pcDNA3.1; conditions: for Emax: HEK293, read-out: α1A receptor I.A.; for α1A receptor I.A. / pEC50: Test Case 4-A, Table 4; for α1A receptor I.A.: maximum response of norepinephrine = 100%; for pEC50: HEK293 cells, Ca flux
# T1 sequence (P35348 1-466): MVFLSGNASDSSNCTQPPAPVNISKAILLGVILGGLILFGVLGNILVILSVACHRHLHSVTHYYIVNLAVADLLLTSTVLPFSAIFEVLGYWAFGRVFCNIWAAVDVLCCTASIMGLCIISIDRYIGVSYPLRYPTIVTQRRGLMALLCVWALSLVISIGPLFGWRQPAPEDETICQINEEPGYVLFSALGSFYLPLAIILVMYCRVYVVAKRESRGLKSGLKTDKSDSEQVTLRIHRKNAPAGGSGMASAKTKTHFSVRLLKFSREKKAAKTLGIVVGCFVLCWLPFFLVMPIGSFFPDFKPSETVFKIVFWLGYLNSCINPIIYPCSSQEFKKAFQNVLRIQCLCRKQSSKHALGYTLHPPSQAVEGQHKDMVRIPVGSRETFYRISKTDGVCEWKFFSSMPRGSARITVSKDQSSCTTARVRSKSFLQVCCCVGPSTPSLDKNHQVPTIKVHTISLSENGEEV
# Description: Measurement of Human α1A-Adrenergic Receptor Agonist Activity
# The human α1A-adrenergic receptor agonist activity is measured using HEK293 cells transfected by a human α1A gene inserted in pcDNA3.1 (Invitrogen). […] After loading for 30 minutes in a CO2 incubator, the excess Fura-2AM is removed by washing twice with assay buffer. After preparing the centrifuged cells to make 5×10^6 cells/mL by assay buffer, 80 μL/well is dispensed into 96-well UV plates (made by Corning) to make cell plates. Sample plates with the test compound diluted 10-fold by assay buffer from 10^−5 to 10^−12 M and cell plates are set in an FDSS4000 (made by Hamamatsu Photonics). After preincubating for 180 seconds, measurement of fluorescence intensity (excitation wavelength 340 nm, 380 nm, measurement wavelength 500 nm) is begun at 2-second intervals. After approximately 30 seconds of measurement, 20 μL of test sample from a sample plate is added to the cell plate, and measurement is continued for another 270 seconds. The Ca flux caused by the test compound is calculated taking the difference in the maximum value of the fluorescence intensity ratio at 340 nm and 380 nm after adding the test compound and the fluorescence intensity ratio before adding the test compound as the peak height.
# [2] = target: T2, human β3-adrenergic receptor (Homo sapiens, UniProt P13945); experiment: Test Case 1-B: human β3-adrenergic receptor agonist activity (cAMP-Screen, 96-well); format: cell-based; conditions: for Emax: 0.5 h, read-out: β3 receptor I.A.; for pEC50 / β3 receptor I.A.: Test Case 1-B; for pEC50: CHO cells, cAMP; for β3 receptor I.A.: maximum response of isoproterenol = 100%
# T2 construct: A full-length human β3 gene is obtained from a human genomic library (made by Clontech) using this as the probe; expressed in transfected cells; host or cells: CHO (Chinese hamster ovary) cells, pcDNA3
# Description: Measurement of Human β3-Adrenergic Receptor Agonist Activity
# The human β3-adrenergic receptor agonist activity is measured using CHO (Chinese hamster ovary) cells transfected by a human β3 gene inserted in pcDNA3 (Invitrogen). […] A full-length human β3 gene is obtained from a human genomic library (made by Clontech) using this as the probe. These cells are cultured in Ham's F-12 medium containing 10% fetal calf serum and 400 μg/mL genectin (Invitrogen). These cells are sown in 96-well plates to make 2×10^4 cells/well. After culturing for approximately 20 hours, they are allowed to stand for 15 minutes in 80 μL of serum-free Ham's F-12 medium. After first dissolving the test compound by DMSO, it is serially diluted by Ham's F-12 containing 100 mmol/L HEPES and 1 mmol/L isobutylmethylxanthine, and 20 μL is added to the cells. After culturing for 30 minutes, the medium is removed, and 0.1 mL of the assay/lysis buffer contained in the cAMP-Screen kit (made by Applied Bioscience) is added and incubated for 30 minutes at 37° C. The cAMP in this cell lysate is assayed by the above cAMP-Screen kit.
# T2 sequence (P13945 whole entry): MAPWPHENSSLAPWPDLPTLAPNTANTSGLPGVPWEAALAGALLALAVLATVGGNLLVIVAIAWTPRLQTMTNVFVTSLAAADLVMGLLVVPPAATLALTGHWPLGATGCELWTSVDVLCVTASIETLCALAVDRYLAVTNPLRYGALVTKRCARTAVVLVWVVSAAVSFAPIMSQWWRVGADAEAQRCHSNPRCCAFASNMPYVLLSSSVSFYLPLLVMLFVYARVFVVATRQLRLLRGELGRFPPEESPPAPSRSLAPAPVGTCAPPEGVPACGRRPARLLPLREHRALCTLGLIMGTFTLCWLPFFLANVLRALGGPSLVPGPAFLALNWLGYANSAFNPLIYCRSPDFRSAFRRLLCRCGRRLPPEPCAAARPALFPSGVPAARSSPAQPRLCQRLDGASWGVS
Emax [1] [%],pEC50 [1],Emax [2] [%],pEC50 [2],Molecule,α1A receptor I.A. [1] [%],β3 receptor I.A. [2] [%]
0,–,18,–,"Cc1n[nH]c2cc(OCCNC[C@H](O)c3cccc(NS(=O)(=O)c4cn(C)cn4)c3)ccc12 [ex50, (R)-N-(3-(1-hydroxy-2-(2-(3-methylindazol-6-yloxy)ethylamino)ethyl)phenyl)-1-methylimidazole-4-sulfonamide]",–,–
0,–,64,6.84,"Cc1n[nH]c2cc(OCCNC[C@H](O)c3cccc(NS(=O)(=O)c4ccccc4Cl)c3)ccc12 [ex51, (R)-2-chloro-N-(3-(1-hydroxy-2-(2-(3-methylindazol-6-yloxy)ethylamino)ethyl)phenyl)ben-zenesulfonamide]",–,–
0,–,62,6.61,"Cc1n[nH]c2cc(OCCNC[C@H](O)c3cccc(NS(=O)(=O)c4ccc(Cl)cc4)c3)ccc12 [ex52, (R)-4-chloro-N-(3-(1-hydroxy-2-(2-(3-methylindazol-6-yloxy)ethylamino)ethyl)phenyl) benzenesulfonamide]",–,–
0,–,48,6.90,"Cc1n[nH]c2cc(OCCNC[C@H](O)c3cccc(NS(=O)(=O)c4ccc(N)cc4)c3)ccc12 [ex54, (R)-4-amino-N-(3-(1-hydroxy-2-(2-(3-methylindazol-6-yloxy)ethylamino)ethyl)phenyl) benzenesulfonamide]",–,–
–,–,65,6.68,"Cc1n[nH]c2cc(OCCNC[C@H](O)c3cccc(NS(=O)(=O)c4ccccn4)c3)ccc12 [ex64, (R)-N-(3-(1-hydroxy-2-(2-(3-methylindazol-6-yloxy)ethylamino)ethyl)phenyl)pyridine-2-sulfonamide]",–,–
–,–,65,6.24,"Cc1n[nH]c2cc(OCCNC[C@H](O)c3cccc(NS(=O)(=O)c4cccc(C(F)(F)F)c4)c3)ccc12 [ex65, (R)-N-(3-(1-hydroxy-2-(2-(3-methylindazol-6-yloxy)ethylamino)ethyl)phenyl)-3-(trifluoromethyl)-benzenesulfonamide]",–,–
–,–,88,6.54,"Cc1n[nH]c2cc(OCCNC[C@H](O)c3cccc(NS(=O)(=O)c4cccc(OC(F)F)c4)c3)ccc12 [ex66, (R)-3-(difluoro-methoxy)-N-(3-(1-hydroxy-2-(2-(3-methylindazol-6-yloxy)ethylamino)ethyl)phenyl) benzenesulfonamide]",–,–
35,5.96,86,7.82,"O=S(=O)(Nc1cccc([C@@H](O)CNCCOc2ccc3c(OC(F)F)n[nH]c3c2)c1)C1CCC1 [ex115, (R)-N-(3-(2-(2-(3-(difluoromethoxy)-indazol-6-yloxy)ethylamino)-1-hydroxyethyl)phenyl)-cyclobutanesul-fonamide]",–,–
0,–,47,7.64,"CCc1n[nH]c2cc(OCCNC[C@H](O)c3cccc(NS(=O)(=O)c4cccc(Cl)c4)c3)ccc12 [ex119, (R)-3-chloro-N-(3-(2-(2-(3-ethylindazol-6-yloxy)-ethylamino)-1-hydroxyethyl)-phenyl) benzenesulfonamide]",–,–
0,–,32,6.88,"CCc1n[nH]c2cc(OCCNC[C@H](O)c3cccc(NS(=O)(=O)c4cccc(OC)c4)c3)ccc12 [ex120, (R)-N-(3-(2-(2-(3-ethylindazol-6-yloxy)ethylamino)-1-hydroxyethyl)phenyl)-3-methoxybenzene-sulfonamide]",–,–
0,–,53,8.55,"CCc1n[nH]c2cc(OCCNC[C@H](O)c3cccc(NS(=O)(=O)c4cccnc4)c3)ccc12 [ex121, (R)-N-(3-(2-(2-(3-ethylindazol-6-yloxy)ethylamino)-1-hydroxyethyl)phenyl) pyridine-3-sulfonamide]",–,–
0,–,59,9.04,"CCc1n[nH]c2cc(OCCNC[C@H](O)c3cccc(NS(=O)(=O)c4cccs4)c3)ccc12 [ex122, (R)-N-(3-(2-(2-(3-ethylindazol-6-yloxy)ethylamino)-1-hydroxyethyl)phenyl) thiophene-2-sulfonamide]",–,–
0,–,50,9.17,"CCc1n[nH]c2cc(OCCNC[C@H](O)c3cccc(NS(=O)(=O)c4ccsc4)c3)ccc12 [ex123, (R)-N-(3-(2-(2-(3-ethylindazol-6-yloxy)ethylamino)-1-hydroxyethyl)phenyl) thiophene-3-sulfonamide]",–,–
15,–,34,7.85,"CCc1n[nH]c2cc(OCCNC[C@H](O)c3cccc(NS(=O)(=O)CC(F)(F)F)c3)ccc12 [ex125, (R)-N-(3-(2-(2-(3-ethylindazol-6-yloxy)ethylamino)-1-hydroxyethyl)phenyl)-2,2,2-trifluoro ? sulfonamide]",–,–

# Further lines, the molecule ahead of its results:
Molecule,Emax [1] [%],pEC50 [1],Emax [2] [%],pEC50 [2],α1A receptor I.A. [1] [%],β3 receptor I.A. [2] [%]
"COc1cccc(S(=O)(=O)Nc2cccc([C@@H](O)CNCCOc3ccc4c(OC)n[nH]c4c3)c2)c1 [ex14, (R)-N-(3-(1-hydroxy-2-(2-(3-methoxyindazol-6-yloxy)ethylamino)ethyl)phenyl)-3-methoxy-b ? sulfonamide]",0,–,–,–,–,–
"COc1cccc(S(=O)(=O)Nc2cccc([C@@H](O)CNCCOc3ccc4c(OC)n[nH]c4c3)c2)c1 [ex15, (R)-N-(3-(1-hydroxy-2-(2-(3-methoxyindazol-6-yloxy)ethylamino)ethyl)phenyl)-3-methoxy-b ? sulfonamide]",–,–,–,–,0,–
"COc1n[nH]c2cc(OCCNC[C@H](O)c3cccc(NS(=O)(=O)C4CCC4)c3)ccc12 [ex38, (R)-N-(3-(1-hydroxy-2-(2-(3-methoxyindazol-6-yloxy)-ethylamino)ethyl)phenyl)cyclo-butanesulfonamide]",75,6.42,89,7.51,–,–
"Cc1n[nH]c2cc(OCCNC[C@H](O)c3cccc(NS(=O)(=O)CC(F)(F)F)c3)ccc12 [ex48, (R)-2,2,2-trifluoro-N-(3-(1-hydroxy-2-(2-(3-methylindazol-6-yloxy)ethylamino)ethyl)phenyl) ? sulfonamide]",29,–,48,7.57,–,–
"Cc1n[nH]c2cc(OCCNC[C@H](O)c3cccc(NS(=O)(=O)c4c(F)cccc4F)c3)ccc12 [ex69, (R)-2,6-difluoro-N-(3-(1-hydroxy-2-(2-(3-methylindazol-6-yloxy)ethylamino)ethyl)phenyl) benzenesulfonamide]",–,–,72,6.23,–,–
"Cc1n[nH]c2cc(OCCNC[C@H](O)c3cccc(NS(=O)(=O)c4cc(F)c(F)c(F)c4)c3)ccc12 [ex77, (R)-3,4,5-trifluoro-N-(3-(1-hydroxy-2-(2-(3-methylindazol-6-yloxy)ethylamino)ethyl)phenyl) benzenesulfonamide]",–,–,–,–,–,59
"O=S(=O)(Nc1cccc([C@@H](O)CNCCOc2ccc3c(OC(F)F)n[nH]c3c2)c1)c1ccccn1 [ex117, (R)-N-(3-(2-(2-(3-(difluoromethoxy)-indazol-6-yloxy)ethylamino)-1-hydroxyethyl)phenyl)pyridine-2-sulfonamide]",–,–,–,–,0,54
"Nc1cccc(S(=O)(=O)Nc2cc([C@@H](O)CNCCOc3ccc4c(C(F)(F)F)n[nH]c4c3)ccc2Cl)c1 [ex183, (R)-3-amino-N-(2-chloro-5-(1-hydroxy-2-(2-(3-(trifluoro-methyl)-indazol-6-yloxy)ethylamino)ethyl)phenyl)ben-zenesulfonamide]",–,–,–,–,–,72
(R)-N-(3-(1-hydroxy-2- (2-(3-methoxyindazol- 6-yloxy)-ethylamino) ethyl)phenyl)- ? benzenesulfonamide [ex40],–,–,–,–,–,50
